The subject of series [1] is human epidermal cancer cells A431 carrying EGFR WT. Briefly: Cell proliferation experiment (CellTiter Glo, 72 hours). Particulars: Homo sapiens, A-431. The format is cell-based. In short, it runs like this: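 Cells seeded at 2000 or 3000/well and exposed 72 h to 9-point 3-fold dilutions, top final 10000 nM or 1111 nM, 0.1% DMSO. Viability by CellTiter-Glo luminescence. Inhibition relative to cell and medium controls; IC50 by four-parameter nonlinear regression.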
Background: ATP-based viability assays read luminescence as a measure of living cells.

Series [2] concerns the target EGFR Δ19del/T790M/C797S (Homo sapiens, UniProt P00533, T790M/C797S, form not given). In words: Kinase inhibition assay (mobility shift). The format is biochemical. In short, it runs like this:
(§1)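 Caliper mobility-shift read of substrate conversion after kinase-compound preincubation 10 min at room temperature, then ATP/substrate addition and reaction at room temperature. Ten-point 3-fold dilutions from 3,000 or 100 nM top; IC50 from variable-slope four-parameter fit of percent inhibition.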

In series [3] the target is IGF1R (Homo sapiens, UniProt P08069). In words: Kinase inhibition assay (mobility shift). The format is biochemical. In short, it runs like this: as §1
Chain of IGF1R (P08069 31-1367, species assumed): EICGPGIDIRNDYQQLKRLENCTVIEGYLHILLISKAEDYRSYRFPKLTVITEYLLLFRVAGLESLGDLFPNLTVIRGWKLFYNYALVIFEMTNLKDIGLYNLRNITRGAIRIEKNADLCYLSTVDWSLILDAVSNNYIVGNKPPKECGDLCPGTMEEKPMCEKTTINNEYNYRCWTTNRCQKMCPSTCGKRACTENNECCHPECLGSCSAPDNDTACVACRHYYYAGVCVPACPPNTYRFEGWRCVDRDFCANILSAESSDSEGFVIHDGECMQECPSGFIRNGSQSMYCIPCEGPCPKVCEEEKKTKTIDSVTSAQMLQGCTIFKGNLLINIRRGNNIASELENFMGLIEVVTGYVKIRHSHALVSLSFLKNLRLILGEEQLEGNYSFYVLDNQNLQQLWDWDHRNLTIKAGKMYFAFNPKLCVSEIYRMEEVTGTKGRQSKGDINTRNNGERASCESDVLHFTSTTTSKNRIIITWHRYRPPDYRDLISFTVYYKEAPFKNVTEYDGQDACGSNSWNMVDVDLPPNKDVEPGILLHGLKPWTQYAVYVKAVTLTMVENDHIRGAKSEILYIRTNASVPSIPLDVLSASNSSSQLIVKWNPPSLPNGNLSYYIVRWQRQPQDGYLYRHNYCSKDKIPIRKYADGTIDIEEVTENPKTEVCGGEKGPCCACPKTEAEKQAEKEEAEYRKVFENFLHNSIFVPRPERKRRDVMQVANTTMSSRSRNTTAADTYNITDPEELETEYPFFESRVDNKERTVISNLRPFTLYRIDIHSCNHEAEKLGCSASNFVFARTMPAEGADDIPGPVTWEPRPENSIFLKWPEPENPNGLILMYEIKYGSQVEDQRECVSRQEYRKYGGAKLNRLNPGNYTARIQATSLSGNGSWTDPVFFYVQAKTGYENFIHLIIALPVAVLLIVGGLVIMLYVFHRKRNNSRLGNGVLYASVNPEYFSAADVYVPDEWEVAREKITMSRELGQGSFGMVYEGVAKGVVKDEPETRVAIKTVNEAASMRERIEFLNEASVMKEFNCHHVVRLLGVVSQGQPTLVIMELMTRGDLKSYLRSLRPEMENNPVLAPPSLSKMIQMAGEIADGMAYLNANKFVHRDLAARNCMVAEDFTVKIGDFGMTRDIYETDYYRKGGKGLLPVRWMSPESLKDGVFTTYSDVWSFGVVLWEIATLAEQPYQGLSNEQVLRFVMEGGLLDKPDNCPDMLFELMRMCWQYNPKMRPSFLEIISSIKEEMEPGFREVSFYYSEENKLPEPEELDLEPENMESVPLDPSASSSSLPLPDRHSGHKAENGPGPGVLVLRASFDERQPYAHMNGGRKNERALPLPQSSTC
Series [4] has as its target EGFR WT (Homo sapiens, UniProt P00533). Briefly: Kinase inhibition assay (mobility shift). The format is biochemical. In short, it runs like this: as §1
Series [5] is described as follows: In vivo safety experiment (body weight, tolerance).
Protocol: The safety evaluation of the drug was carried out in BALB/c nude mice. […] They were fed in an SPF environment, and each cage was individually ventilated (5 mice per cage). All cages, bedding and water were disinfected prior to use. Mice were purchased from Viton Lever and were allowed to acclimate in the laboratory. Mice were administered orally QD.

Chain of EGFR WT (P00533 25-1210): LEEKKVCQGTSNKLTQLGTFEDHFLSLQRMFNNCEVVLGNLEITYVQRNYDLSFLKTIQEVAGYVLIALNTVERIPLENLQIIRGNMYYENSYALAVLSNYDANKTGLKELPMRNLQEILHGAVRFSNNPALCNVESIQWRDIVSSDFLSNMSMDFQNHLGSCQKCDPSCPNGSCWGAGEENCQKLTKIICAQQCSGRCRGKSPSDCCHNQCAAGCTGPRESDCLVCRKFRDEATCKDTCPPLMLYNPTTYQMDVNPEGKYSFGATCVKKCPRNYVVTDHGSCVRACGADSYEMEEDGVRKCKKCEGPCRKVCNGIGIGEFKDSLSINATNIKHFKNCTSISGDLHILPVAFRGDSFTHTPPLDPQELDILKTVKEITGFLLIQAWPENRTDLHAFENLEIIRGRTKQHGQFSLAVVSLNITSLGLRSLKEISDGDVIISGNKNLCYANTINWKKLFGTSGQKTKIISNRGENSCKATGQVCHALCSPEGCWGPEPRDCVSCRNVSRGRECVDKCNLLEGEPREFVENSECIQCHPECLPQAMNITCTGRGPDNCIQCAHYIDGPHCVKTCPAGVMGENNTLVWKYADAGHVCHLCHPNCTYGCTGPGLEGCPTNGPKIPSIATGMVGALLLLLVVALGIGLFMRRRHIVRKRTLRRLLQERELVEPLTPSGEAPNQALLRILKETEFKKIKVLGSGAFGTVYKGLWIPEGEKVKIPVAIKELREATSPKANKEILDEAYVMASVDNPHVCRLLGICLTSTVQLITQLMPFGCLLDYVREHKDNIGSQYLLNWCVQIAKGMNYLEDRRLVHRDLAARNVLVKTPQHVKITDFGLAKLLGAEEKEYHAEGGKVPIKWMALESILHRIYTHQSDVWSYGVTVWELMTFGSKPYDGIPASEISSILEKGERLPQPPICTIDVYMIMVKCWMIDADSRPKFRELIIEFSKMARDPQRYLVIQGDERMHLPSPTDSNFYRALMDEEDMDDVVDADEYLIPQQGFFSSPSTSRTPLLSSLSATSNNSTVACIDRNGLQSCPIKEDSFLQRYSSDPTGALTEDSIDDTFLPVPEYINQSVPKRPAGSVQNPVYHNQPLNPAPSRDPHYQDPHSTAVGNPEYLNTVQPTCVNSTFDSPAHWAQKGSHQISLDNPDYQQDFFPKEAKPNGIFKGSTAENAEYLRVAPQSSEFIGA
Chain of EGFR Δ19del/T790M/C797S (P00533 with tags, fused parts or gaps DEL746-750/T790M/C797S, form open): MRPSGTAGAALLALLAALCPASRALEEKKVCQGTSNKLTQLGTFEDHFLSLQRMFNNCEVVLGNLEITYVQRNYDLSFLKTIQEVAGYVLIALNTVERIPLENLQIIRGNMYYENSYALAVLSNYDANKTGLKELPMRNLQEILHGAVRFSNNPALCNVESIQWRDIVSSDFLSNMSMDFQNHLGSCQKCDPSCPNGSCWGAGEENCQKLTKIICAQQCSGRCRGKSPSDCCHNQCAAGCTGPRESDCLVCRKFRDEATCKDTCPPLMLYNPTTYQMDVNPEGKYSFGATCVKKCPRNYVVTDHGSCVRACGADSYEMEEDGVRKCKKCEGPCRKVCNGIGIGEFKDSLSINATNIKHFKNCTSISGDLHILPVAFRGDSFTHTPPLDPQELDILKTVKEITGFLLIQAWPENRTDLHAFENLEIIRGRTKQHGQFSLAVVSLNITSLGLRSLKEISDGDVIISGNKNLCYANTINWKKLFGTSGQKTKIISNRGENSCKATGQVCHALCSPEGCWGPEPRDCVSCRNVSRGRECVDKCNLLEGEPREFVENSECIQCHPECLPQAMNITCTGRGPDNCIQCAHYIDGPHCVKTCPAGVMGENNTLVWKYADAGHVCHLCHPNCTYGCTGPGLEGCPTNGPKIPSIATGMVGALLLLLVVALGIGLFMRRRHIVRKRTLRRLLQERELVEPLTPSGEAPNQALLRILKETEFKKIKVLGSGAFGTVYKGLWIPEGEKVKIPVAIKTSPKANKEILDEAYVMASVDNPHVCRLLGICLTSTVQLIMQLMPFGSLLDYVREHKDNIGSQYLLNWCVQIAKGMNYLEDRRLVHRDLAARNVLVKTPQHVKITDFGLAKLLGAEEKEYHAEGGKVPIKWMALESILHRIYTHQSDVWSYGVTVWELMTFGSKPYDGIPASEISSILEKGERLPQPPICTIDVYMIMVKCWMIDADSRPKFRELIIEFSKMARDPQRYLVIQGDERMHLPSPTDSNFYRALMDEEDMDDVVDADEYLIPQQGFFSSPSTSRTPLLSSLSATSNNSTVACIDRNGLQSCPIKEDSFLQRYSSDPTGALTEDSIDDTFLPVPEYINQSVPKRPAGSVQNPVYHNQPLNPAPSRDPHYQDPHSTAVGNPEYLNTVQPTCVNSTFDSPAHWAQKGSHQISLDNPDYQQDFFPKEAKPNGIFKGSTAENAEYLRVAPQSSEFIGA

Take `COc1cc(N2CCC(N3CCN(C)CC3)CC2)c(C)cc1Nc1ncc(Br)c(Nc2ccc3nc(C4CC4)ccc3c2P(C)(C)=O)n1` [Compound J-022, (6-((5-Bromo-2-((2-methoxy-5-methyl-4-(4-(4-methylpiperazin-1-yl)piperidin-1-yl)phenyl)amino)pyrimidin-4-yl)amino)-2-cyclopropylquinolin-5-yl)dimethylphosphine oxide]: the IC50 (commonly the concentration needed to halve the response being measured) turned out to be 1130 nM in series [1], 0.3 nM in series [2], 195 nM in series [3] and 20.2 nM in series [4]. Moreover, the “Body weight of mouse” value in series [5] (75 mg/kg/day oral QD, 0 days) came out at 18.7 g; in series [5] (75 mg/kg/day oral QD, 2 days) it was 18.9 g; in series [5] (75 mg/kg/day oral QD, 4 days) it was 19.2 g; in series [5] (75 mg/kg/day oral QD, 6 days), 19.4 g; in series [5] (100 mg/kg/day oral QD, 0 days), 18.7 g; in series [5] (100 mg/kg/day oral QD, 2 days), 18.6 g. Besides, the “Body weight of mouse” value in series [5] (100 mg/kg/day oral QD, 4 days) is on record as 19.0 g; in series [5] (100 mg/kg/day oral QD, 6 days) it was 19.2 g; in series [5] (150 mg/kg/day oral QD, 0 days) it was 18.7 g; in series [5] (150 mg/kg/day oral QD, 2 days), 18.3 g; in series [5] (150 mg/kg/day oral QD, 4 days) it was 18.5 g; in series [5] (150 mg/kg/day oral QD, 6 days), 18.4 g. For the same molecule, in series [5] (150 mg/kg/day oral, 7 days), the “Change in the body weight of mice” value is “no significant change”. For the same molecule, the Tolerability result in series [5] (150 mg/kg/day, 7 days) is on record as “tolerable”. The “window from the effective dose to the intolerance dose” value in series [5] (effective dose = dose corresponding to 50% TGI) was “greater than 15 times”.

For the origin of these results see patent US20230131025A1, “QUINOLYL PHOSPHINE OXIDE COMPOUND, AND COMPOSITION AND APPLICATION THEREOF” (Betta Pharmaceuticals Co., Ltd., priority 2020, published 2023).
